Read-outs that look alike come from different tables or passages of the source.
Assays:
[1] = tested on: Skp2 Trp97Ala and Asp98Ala mutants binding to Skp1; assay: In vitro Skp2-Skp1 binding assay with Skp2 mutants; details: FIG. 2D
Procedure: For in vitro GST-Skp1 and Skp2 interaction, GST-Skp1 proteins purified from the bacterial lysates of BL21 competent cells transformed with pGEX-4X1-Skp1 using the Glutathione-Agarose beads according to the manufacturer's standard procedures. The GST-Skp1 proteins bound to glutathione Sepharose beads (Amersham Biosciences) were then incubated with the in vitro translated [35^S]-Skp2 for 2 hours at 4° C. in the interaction buffer with or without compound #25 (20 mM HEPES, PH 7.9, 150 mM KCl. 5 mM EDTA, 0.5 mM DTT, 0.1% (v/v) Nonidet p-40, 0.1% (w/v) BSA, 1 mM PMSF, and 10% Glycerol), washed by the NETN buffer (20 mM Tris, pH 8.0, 100 mM NaCl, 6 mM MgCl2, 1 mM EDTA, 0.5% Nonidet P-40, 1 mM DTT, 8% glycerol, 1 mM PMSF) 4 times, and subjected to 8% SDS-PAGE, followed by autoradiography.

[2] = tested on: Skp2 Trp97Ala and Asp98Ala mutants; assay: In vivo p27 ubiquitination assay, Skp2 Trp97Ala and Asp98Ala mutants; format: cell-based
Procedure: In vivo and in vitro ubiquitination assays were performed as described with modification (Lin et al., 2009; Yang et al., 2009). For in vitro ubiquitination assay, recombinant GST-Akt proteins were expressed, purified and eluted from the bacterial lysates of BL21 competent cells. Flag-Skp2 SCF complex were expressed in 293T cells, immunoprecipitated by anti-Flag antibody, and eluted from Protein A/G beads using Flag peptides according to manufacturers' standard procedures. Purified GST-Akt and Flag-SCF proteins were incubated for 3 h at 37° C. in the absence and presence of Skp2 inhibitor. After incubation, protein mixtures were diluted in E1A Buffer and the supernatant fluid was precleared with Protein A/G beads for 1 h, and immunoprecipitated overnight with anti-Flag antibody, after which Protein A/G beads were added for an additional 1 h. Beads were washed 4 times with E1A Buffer. Proteins were eluted in SDS-sample buffer and subjected to immunoblotting analysis. For in vivo ubiquitination assay, 293T cells were transfected with the indicated plasmids and cultured in the absence or presence of Skp2 inhibitor for 48 h. 6 h before harvest, cells were cultured in the presence of MG132. After cell harvest, cells were lysed by the denatured buffer (6M guanidine-HCl, 0.1M Na2HPO4/NaH2PO4, 10 mM imidazole). […]

[3] = tested on: EGF-mediated Akt phosphorylation and activation; assay: EGF-mediated Akt phosphorylation, immunoblotting; format: cell-based; details: various cancer cell lines
Description: (§1) Cells were lysed with RIPA buffer in the presence of protease inhibitor cocktail (Roche). The following antibodies were used for immunoblotting analysis: anti-Skp2 (Invitrogen), anti-Xpress (Invitrogen), anti-p27 (BD transduction laboratories), anti-p21 (Santa Cruz), anti-β-actin (Sigma), anti-α-tubulin (Sigma), anti-phospho-Akt (Thr308) (Cell Signaling), anti-phospho-Akt (Ser473) (Cell Signaling), and anti-HA (Convance). For immunohistochemistry, tissues were fixed in 10% formalin and embedded in paraffin in accordance with standard procedures. Sections were stained with anti-Skp2 (Invitrogen), anti-p27 (Epitomics), anti-phosphoAkt (SerS473) (Cell signaling), anti-Glut1 (Abcam), and anti-Ki67 (Abcam). TUNEL staining was performed by using in situ cell death detection kit-POD (Roche).

ERK activation = ERK activation after EGF, immunoblotting; format: cell-based
Skp2 protein expression = assay: Skp2 protein expression, immunoblotting; format: cell-based; details: higher dosage (20 μM)
Description: as §1

PC-3 cells = assay: Cell survival assay, PC-3; format: cell-based, human
Procedure: (§2) For Skp2 inhibitor administration, 5-10×10^3 of cells with were seeded in 12 wells in triplicate, 24 h later, treated with compound #25 (refreshed every two days). Four days later, cells were harvested, stained with trypan blue, and viable cells were counted directly under the microscope using hemocytometer. For doxorubicin treatment, 8×10^3 of PC3 cells with were seeded in 12 wells in triplicate, 24 h later, treated with various dose of compound #25 in the presence or absence of 10 nM doxorubicin or 25 ng/ml cyclophosphamide for four and three days, respectively (refreshed every two days). After treatment, cells were harvested, stained with trypan blue, and viable cells were counted directly under the microscope using hemocytometer. Cellular senescence was determined by assessing SA-b-gal activity using senescence detection kit according to manufacturers' standard procedures (Calbiochem).

[4] = tested on: normal prostate epithelial PNT1A cells; assay: Cell survival assay, PNT1A; format: cell-based
Procedure: as §2

[5] = tested on: tumorigenic lung cancer cells; assay: Cell survival assay, lung cancer cells and normal fibroblasts; format: cell-based
Procedure: as §2

H3255 (lung) = assay: Cell survival assay, H3255; format: cell-based, human
Procedure: as §2

H3299 (lung) = assay: Cell survival assay, H3299; format: cell-based, human
Procedure: as §2

U2OS (osteocarcinoma) = assay: Cell survival assay, U2OS; format: cell-based, human
Procedure: as §2

prostate cancer cells = assay: Cell survival assay in combination with Dox or CPA; format: cell-based; details: combination with doxorubicin or cyclophosphamide
Procedure: as §2

A549 xenograft tumors = assay: A549 tumor xenograft in nude mice; format: in vivo; details: IP injection
Procedure: Nude mice bearing PC3 or A549 xenograft tumors (around 100 mm^3) were administrated with vehicle or 80 mg/kg compound #25 on a daily basis. Tumor size was measured weekly with a caliper, and tumor volume was determined with the standard formula: L×W2×0.52, where L is the longest diameter and W the shortest diameter.

[6] = Pharmacokinetic analysis, plasma and tumor distribution; format: in vivo, nude mice
Procedure: FIGS. 14A-C. Skp2 inhibitor restricts cancer cell proliferation and triggers apoptosis in prostate tumor xenografts. The quantification results (FIG. 14A) and representative images (FIG. 14B) of histological analysis of Ki-67, TUNEL, Skp2 and HE staining in PC3-driven tumor xenografts. “Low” indicates tumor xenografts treated with 40 mg/kg, while “high” indicates the xenografts treated with 80 mg/kg of compound #25. Scale bar indicates 100 μm. (FIG. 14C) Pharmacokinetic analysis of compound #25. Plasma and tumor distribution following IP injection of compound #25 to nude mice bearing PC3-driven tumor xenograft are analyzed. Three mice were evaluated at each time point. Results are represented as mean values±S.D.

- binding of Skp2 Trp97Ala and Asp98Ala mutants to Skp1 [1]: unable to inhibit
- time of maximum levels in blood ([6]; IP administration): 1 h
- share of compound maintained in blood ([6]; for 6 h): up to 70%
- concentration at 24 h ([6]; nude, mouse, blood, intraperitoneal, 24 h after administration, read-out: terminal concentration in blood): 126 ± 48 ng/mL
- Cmax ([6]; nude, mouse, blood, IP administration): 1430 ± 1180 ng/mL
- concentration at 24 h ([6]; nude, mouse, tumor, intraperitoneal, 24 h after initial administration, read-out: concentration remaining in tumor tissues): ~1160 ng/mL
- concentration at 1 h ([6]; nude, mouse, tumor, intraperitoneal, within 1 h, read-out: concentration in tumors): 4790 ± 1970 ng/g
SMILES: CCc1cc2c(=O)c(-c3nc4ccccc4s3)coc2c(CN2CCCCC2)c1O [compound #25, 3-(1,3-benzothiazol-2-yl)-6-ethyl-7-hydroxy-8-(1-piperidinylmethyl)-4H-chromen-4-one]
- E3 ligase activity of Skp2 Trp97Ala and Asp98Ala mutants [2]: failed to inhibit
- EGF-mediated Akt phosphorylation and activation [3]: profoundly inhibited
- ERK activation (ERK activation): no noticeable impact
- Skp2 protein expression (Skp2 protein expression): downregulated Skp2 protein expression
- cell viability (PC-3 cells; PC-3): potent effects on cell viability
- viability upon Skp2 silencing (PC-3 cells; Skp2-knockdown prostate cancer cells): inhibitory effect is compromised
- viability of control-knockdown cells (PC-3 cells; control-knockdown prostate cancer cells): potent inhibitory effect
- cell viability with ectopic Skp2 Trp97Ala or Asp98Ala (PC-3 cells; ectopic expression of Skp2 mutants): attenuated the inhibitory effect
- cell viability [4]: only slightly affected
- cytotoxicity, lung cancer cells over lung fibroblast [5]: favorably triggered cytotoxicity in tumorigenic lung cancer cells over non-tumorigenic lung fibroblast
- cell viability (H3255 (lung)): potent suppressive effect on viability
- cell viability (H3299 (lung)): potent suppressive effect on viability
- cell viability (U2OS (osteocarcinoma)): potent suppressive effect on viability
- sensitization to Dox and CPA (prostate cancer cells): increased the efficacy of Dox and CPA
- lung tumor growth in vivo (A549 xenograft tumors): potent effect

From patent US9624211B2, “Anti-cancer compounds” (Board of Regents, The University of Texas System, priority 2013, dated 2017)
